Assay results taken from patent publication US20020037844A1, “SYNTHETIC PEPTIDE FOR TREATMENT OF AUTOIMMUNE ARTHRITIS” (priority 1993, published 2002).
“Also recorded” adds a separate entry of the source. One block for each substance: values may come before it.

Legend:
CII-primed T cells = assay: T cell stimulation assay, γ-IFN production by CII-primed spleen and lymph node cells; type: cell-based, mice; details: CII-primed T cells cultured with 100 μm of antigen; FIG. 1
Experimental: Nowarck H., E. Hahn, R. Timple, 1976, “Requirements for T Cells in the Antibody Response of Mice to Calf Skin Collagen,” J. Immunol. 30:29. Each peptide was cultured with pooled spleen and lymph node cells from CII-immunized mice, and culture supernatant fluids were tested for the presence of γ-interferon as an indicator of T cell stimulation. T cell hybridomas were established by polyethylene glycol-induced fusion of lymph node cells with the T cell receptor α^−/β^−thymoma line, BW5147. White, M., M. Blackman, J. Bill, J. Kappler, P. Marrack, D. P. Gold, and W. Born, 1989, Two Better Cell Lines for Making Hybridomas Expressing Specific T Cell Receptors. J. Immunol. 143:1822. […]
(§1) T cell stimulation assays were performed in 96 well plates and the degree of stimulation was quantitated by measurements of γ-IFN production. […] Supernatants were collected from 72 to 120 hours later and either […] analyzed for γ-IFN production immediately or stored at −70° C. prior to analysis. Quantitative measurement of murine gamma interferon was done using a solid-phase enzyme-linked immunosorbent assay (Amgen Biologicals, Thousand Oaks, Calif.). […] The absorbance was measured at 405 nm with a spectrophotometer, and a standard curve was obtained by plotting the absorbance versus the corresponding concentration of the standards. Units of γ-interferon were calculated based on NIH standard number Gg02-901-533. […]

[1] = target: T1, I-A^q on the surface of antigen presenting cells (Mus musculus, UniProt P04227+P06342); assay: Competitive antigen presentation assay: pulsed APC presented to CII 245-270 specific T-cell hybridomas, IL-2 titer; type: cell-based, DBA/1 mice; details: for Binding to I-A^q / competition for presentation of the wild type peptide to T-cell hybridomas: conclusion from Table II
T1 construct: containing 4×10^5 syngenic spleen cells and 10^5 T-hybridoma cells; from tissue; host or cells: spleen cells syngeneic to DBA/1 mice (H-2q), used as antigen presenting cells
Experimental: Lymph node cells were obtained from DBA/1 mice immunized with α1(II)-CB11 emulsified with complete Freund's adjuvant and cultured in vitro with α1(II)-CB11 for five days, and in the presence of IL-2 for three days before fusion. Hybridoma cells reactive to CB11 [CII 245-270] and CII were cloned by limiting dilution to 0.3 cells/well. Antigen presentation experiments were performed in 96 well […] plates in a total volume of 0.3 ml containing 4×10^5 syngenic spleen cells and 10^5 T-hybridoma cells. For competitive inhibition assays, spleen cells were pulsed with various ratios of inhibitor to indicator peptide and washed several times prior to addition to the antigen presentation culture. Cell cultures were maintained at 37° C. in 5% humidified CO2 for 20 to 24 hours, after which seven 80 μl two-fold serial dilutions were made for determination of IL-2 titers. Four thousand HT-2 cells were added to each supernatant dilution, and after 16 to 20 hours HT-2 cell viability was evaluated by visual inspection. IL-2 titers were determined by the reciprocal of the highest two-fold serial dilution maintaining 90% viability of the HT-2 cells. Results are presented as units of IL-2 per ml of undiluted supernatant as described by Kapper et al. Kappler, J., J. White, D. Wegman, E. Mustain, and P. Marrack, 1982, Antigen Presentation by Ia^+B Cell Hybridomas to H-2 Restricted T Cell Hybridomas. Proc. Natl. Acad. Sci. USA 79:3604. The disclosure of this article is incorporated by reference.
The inability of some analog peptides to stimulate T cells likely occurs either because of disruption of peptide binding to the I-A^q molecule or the inability of the T cell receptor to recognize the peptide. In order to determine whether the analog peptides could bind to the class II molecule, competitive antigen presentation assays were performed. Antigen presenting cells (APC) were pulsed with various molar ratios of CII 245-270 and an analog peptide, and tested for their ability to stimulate CII 245-270 specific T cell hybridomas.

CII-primed, bulk T cells = assay: Inhibition of antigen presentation to CII-primed bulk T cells (co-culture); type: cell-based, DBA/1 mice; details: analog co-cultured with CII 245-270 or native CII at various ratios; FIG. 2
Experimental: as §1, with “production. Myers, L. K., K. Terato, J. M. Seyer, J. M. Stuart, and A. H. Kang, 1992, Characterization of a Tolerogenic T Cell Epitope of Type II Collagen and its Relevance to Collagen-Induced Arthritis. J. Immunol. 149:1439. The disclosure of this article is incorporated by reference. Spleens and lymph nodes from mice immunized with CII 14 to 21 days prior were individually minced into single cell suspensions in Hank's Balanced Salt Solution (BSS) and washed 3 times.” for “production.”

[2] = system: collagen induced arthritis (CIA) in DBA/1 mice; assay: Collagen induced arthritis, simultaneous immunization with CII and peptide; type: in vivo; details: for Development / incidence of arthritis, in words: co-injected with native CII, molar ratio CII:peptide 1:480
[3] = system: antibodies reactive with type II collagen; assay: Serum antibodies to CII by ELISA in co-immunized mice; type: in vivo, DBA/1 mice; details: for Antibodies to CII: serum four weeks after immunization, mean
Experimental: (§2) Mice were bled at four weeks after immunization and the serum was tested for antibodies reactive with type II collagen by enzyme-linked immunoassay (ELISA) described in Stuart, J. M., A. S. Townes, and A. H. Kang. 1982. Nature and Specificity of the Immune Response to Collagen in Type II Collagen-Induced Arthritis in Mice, J. Clin. Invest. 69:673. The disclosure of this article is incorporated by reference An anti-CII serum standard was used in each assay. A standard curve was derived by computer analysis using a 4 parameter logistic curve. Results are reported as units of activity, derived by comparison of test sera with the curve derived from the anti-CII standard which was arbitrarily defined as having 50 units of activity. Sera from mice were tested individually, and means were calculated for each experimental group.
In order to assess the effects of co-immunizing mice with both CII 245-270[s260, 261, 263] and CII, the mean antibody titers to native CII were measured for each immunization group in Table III, four weeks after immunization (Table IV).

[4] = system: collagen induced arthritis in neonatally tolerized mice; assay: Neonatal tolerance: peptide given at birth, CII challenge at eight weeks, arthritis observed; type: in vivo; details: administered to neonatal mice prior to immunization with CII
Source text: To measure the incidence of arthritis in immunized mice, individuals examined and scored each of the forepaws and hind paws on a scale of 0-4 as described in Wooley, P. H., H. W. Luthra, J. M. Stuart and C. S. David. 1981. “Type 11 Collagen-induced Arthritis in Mice”. I. Major Histocompatibility Complex (I region) Linkage and Antibody Correlates. J. Exp. Med. 154:688. This article is incorporated herein by reference. There were two separate examiners, one of whom was unaware of the identity of the treatment groups. Each mouse was scored three times a week beginning three weeks post immunization and continuing through 8 weeks post immunization. The incidence of arthritis (number of animals with one or more arthritic limbs) was reported at 6 weeks post immunization, the time point at which the control group reached its peak of disease. The incidence of arthritis in various groups of mice was compared using Fisher's Exact Test. Student's T test was used to compare means of antibody responses to CII.
The foregoing data support the hypothesis that analog peptide CII 245-270[s260, 261, 263] competes for binding to I-A^q. […] Synthetic peptides were solubilized directly in phosphate buffered saline (PBS) at a concentration of 1 mg/ml. […]

antibodies to CII = assay: Serum antibodies to CII by ELISA in neonatally treated mice; type: in vivo; details: 100 μg antigen in IFA intraperitoneally within 24 hours of birth; serum four weeks after immunization; mean titer
Experimental: as §2
The foregoing data support the hypothesis that analog peptide CII 245-270[s260, 261, 263] competes for binding to I-A^q. […] Synthetic peptides were solubilized directly in phosphate buffered saline (PBS) at a concentration of 1 mg/ml. Neonatal mice were tolerized using a protocol described by Gammon et al.^21 in which antigen emulsified with incomplete Freund's adjuvant was injected intraperitoneally. Gammon, Dunn, Shastri, Oki, Wilbur, Sercarz, 1986, Neonatal T Cell Tolerance to Minimal Immunogenic Peptides is Caused by Clonal Inactivation, Nature (Lond) 319:413. […]

[5] = system: collagen induced arthritis in neonatally tolerized mice; details: Myers et al. 1989, J. Exp. Med. 170:1999; cited from earlier work

Binding to I-A^q / competition for presentation of the wild type peptide to T-cell hybridomas [1]: did not compete
Substance: CII 245-270 [s266, 267, 269]: analog of CII 245-270 with D at 266, T at 267, A at 269 (type I collagen based substitutions) (PTGPLGPKGQTGELGIAGFKGDTGAK)
T cell stimulation (γ-interferon) compared to the wild type peptide CII 245-270 (CII-primed T cells): did not respond
T cell responses to CII 245-270 and CII (CII-primed, bulk T cells): no significant effect

Substance: Pro - Thr - Gly - Pro - Leu - Gly - Pro - Lys - Gly - Gin - Thr - Gly - Glx - Leu - Gly - Ile - Ala - Gly - Phe - Lys - Gly - Glx - Gln - Gly - Pro - Lys [CII 245-270, reference compound]
Development / incidence of arthritis, in words [2]: did not alter the incidence of disease
Antibodies to CII ([3]; molar ratio CII:peptide 1:480): 54 ± 25 units of activity
Effectiveness as neonatal tolerogen, in words [4]: effective tolerogen
Antibodies to CII (antibodies to CII): 18.5 ± 8
Suppression of arthritis as neonatal tolerogen [5]: suppresses arthritis

IL-2 ([1]; T-cell hybrid 2qCII92.33, molar ratio competitor:CII 245-270 1.6:1): 160 U/ml
IL-2 ([1]; T-cell hybrid 2qCII92.33, molar ratio competitor:CII 245-270 3.2:1): 80 U/ml
IL-2 ([1]; T-cell hybrid 2qCII92.33, molar ratio competitor:CII 245-270 6.5:1): 20 U/ml
IL-2 ([1]; T-cell hybrid qCII85.33, molar ratio competitor:CII 245-270 1.6:1): 640 U/ml
IL-2 ([1]; T-cell hybrid qCII85.33, molar ratio competitor:CII 245-270 3.2:1): 320 U/ml
IL-2 ([1]; T-cell hybrid qCII85.33, molar ratio competitor:CII 245-270 6.5:1): 40 U/ml
IL-2 ([1]; T-cell hybrid qCII98.10, molar ratio competitor:CII 245-270 1.6:1): 160 U/ml
IL-2 ([1]; T-cell hybrid qCII98.10, molar ratio competitor:CII 245-270 3.2:1): 80 U/ml
IL-2 ([1]; T-cell hybrid qCII98.10, molar ratio competitor:CII 245-270 6.5:1): 40 U/ml
Ability of competitively pulsed APC to stimulate the T-cell hybridomas ([1]; analog:CII 245-270 molar ratios of 6:1 or greater): greatly reduced
Binding to I-A^q / competition for presentation of the wild type peptide to T-cell hybridomas [1]: capable of binding to I-A^q
Substance: Pro - Thr - Gly - Pro - Leu - Gly - Pro - Lys - Gly - Gln - Thr - Gly - Glx - Leu - Gly - Ala - 4Hyp - Gly - Asn - Lys - Gly - Glx - Gln - Gly - Pro - Lys [CII 245-270 [s260, 261, 263], analog of CII 245-270 with alanine at 260, hydroxyproline at 261, asparagine at 263]
T cell stimulation (γ-interferon) compared to the wild type peptide CII 245-270 (CII-primed T cells): did not respond
IL-2 ([1]; T-cell hybrid 2qCII92.33, molar ratio competitor:CII 245-270 13:1): — (A “—” indicates less than 20 U/ml of IL-2 detected)
IL-2 ([1]; T-cell hybrid qCII85.33, molar ratio competitor:CII 245-270 13:1): —* (A “—” indicates less than 20 U/ml of IL-2 detected)
IL-2 ([1]; T-cell hybrid qCII98.10, molar ratio competitor:CII 245-270 13:1): — (A “—” indicates less than 20 U/ml of IL-2 detected)
T cell responses to CII 245-270 and CII (CII-primed, bulk T cells): significantly decreased responses to both CII 245-270 and CII in a dose dependent manner
Incidence of arthritis and number of arthritic limbs, in words ([2]; co-immunized with CII at various molar ratios): dose-dependent decrease
Development / incidence of arthritis, in words [2]: arthritis did not develop
Immune responses to CII in vivo as well as in vitro, in words ([3]; co-immunization with CII): significantly down regulated
Antibodies to CII ([3]; molar ratio CII:peptide 1:160): 53 ± 25 units of activity
Antibodies to CII ([3]; molar ratio CII:peptide 1:320): 34 ± 22 units of activity
Antibodies to CII ([3]; molar ratio CII:peptide 1:480): 17 ± 3 units of activity
Effectiveness as neonatal tolerogen, in words ([4]; 261, 263]): ineffective as a CII tolergen; also recorded: very poor tolerogen
Antibodies to CII (antibodies to CII): 55.6 ± 19
